11 compounds from ChEMBL document CHEMBL1201862, “PubChem BioAssay data set” (2004) can be followed below.

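Compound exposure: 48 hours, 5 concentrations, 96-well plates. GI50: concentration for 50% inhibition of growth.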 Active and inactive are the calls of the source. Cut-off read from the data, not from the text of the source: active = GI50 up to about 1.1 µM and inactive = higher. Bounds are passed on as bounds.

Among the test systems are NCI/ADR-RES; NCI-H522; SK-MEL-28; MCF7; RPMI-8226; NCI-H460; UO-31; HCT-15; TK-10; UACC-257; MDA-N; Hs-578T; SF-295; MDA-MB-231; HCT-116; SK-MEL-2; LOX IMVI; OVCAR-3; PC-3; HOP-62.
What all share (experiment): growth of human tumour cells (NCI), 48 h

As for `O=c1c2cccnc2[s+]([O-])n1Cc1ccccc1` (stereo unspecified), the GI50 in the assay with NCI/ADR-RES, in the assay on NCI-H522, in the assay with SK-MEL-28, in the assay with MCF7, with RPMI-8226 and with NCI-H460 was > 100 µM (inactive) throughout. In addition, the GI50 with UO-31 is > 100 µM (inactive); with HCT-15 it was > 100 µM; with TK-10, > 100 µM (inactive); in the assay on UACC-257 it was > 100 µM (inactive); in the assay with MDA-N it was > 100 µM (inactive); with Hs-578T it was > 100 µM (inactive). The GI50 with SF-295, in the assay with MDA-MB-231 and with HCT-116 was > 100 µM (inactive) in each case.
Regarding `CCOC(=O)c1c(NCc2ccccc2)n(-c2ccccc2)c(=S)n(-c2ccccc2)c1=O`, the GI50 was > 100 µM (inactive) in the assay on SK-MEL-2; 57.8 µM (inactive) with NCI-H522; > 100 µM (inactive) in the assay on SK-MEL-28; 53.3 µM (inactive) in the assay with MCF7; 35.6 µM (inactive) with RPMI-8226; > 100 µM (inactive) in the assay with LOX IMVI. In addition, the GI50 with NCI-H460 was > 100 µM (inactive); with UO-31, 45.8 µM (inactive); in the assay with HCT-15, 63.1 µM; in the assay on TK-10, > 100 µM (inactive); in the assay with UACC-257, > 100 µM (inactive); with MDA-N it was > 100 µM (inactive). The GI50 with Hs-578T is 19.5 µM (inactive); in the assay with SF-295, 49.4 µM (inactive); in the assay with MDA-MB-231, > 100 µM (inactive); in the assay with OVCAR-3, > 100 µM (inactive).
As for `COC(=O)CCn1cnc2c(SC)ncnc21`, the GI50 in the assay with NCI/ADR-RES, with NCI-H522, in the assay with SK-MEL-28, in the assay on MCF7, with RPMI-8226 and in the assay with LOX IMVI was > 100 µM (inactive) throughout. The GI50 with NCI-H460, in the assay on PC-3, in the assay on UO-31, in the assay with TK-10, with UACC-257 and in the assay on MDA-N was > 100 µM (inactive) in each case. Besides, the GI50 in the assay with HOP-62, in the assay on Hs-578T, with SF-295, in the assay on MDA-MB-231, in the assay with HCT-116 and with OVCAR-3 was > 100 µM (inactive) throughout.
With `COc1ccccc1N1CCN(S(=O)(=O)c2ccc(Cl)cc2)C1=N`, the GI50 with NCI/ADR-RES was 61.2 µM (inactive); in the assay with SK-MEL-2 it was 57.4 µM (inactive); in the assay with NCI-H522 it was 40.5 µM (inactive); with SK-MEL-28, 75 µM (inactive); with MCF7, 52.2 µM (inactive); in the assay with RPMI-8226, 93.8 µM (inactive). The GI50 was 33.4 µM (inactive) in the assay with NCI-H460; 56.8 µM (inactive) in the assay on PC-3; 33.3 µM (inactive) in the assay on UO-31; 62.4 µM in the assay with HCT-15; 60.7 µM (inactive) in the assay on TK-10; 41.6 µM (inactive) with UACC-257. For the same compound, the GI50 in the assay on MDA-N is 49.3 µM (inactive); in the assay with HOP-62, > 100 µM (inactive); in the assay on Hs-578T it was 78 µM (inactive); in the assay with SF-295 it was > 100 µM (inactive); in the assay with MDA-MB-231, 37.1 µM (inactive); in the assay on HCT-116, 27.9 µM (inactive). Besides, the GI50 with OVCAR-3 is 97.9 µM (inactive).
For the compound `COC(=O)N[C@@H]1C[C@H]2CC[C@]1(O[Si](C(C)C)(C(C)C)C(C)C)C(=O)C2`, the GI50 in the assay on NCI/ADR-RES is 14.8 µM (inactive); in the assay on SK-MEL-2, 17.4 µM (inactive); in the assay on NCI-H522, 8.59 µM (inactive); in the assay on SK-MEL-28, 14.6 µM (inactive); with MCF7, 21.1 µM (inactive); with RPMI-8226, 15.8 µM (inactive). The GI50 in the assay with NCI-H460 was 20.7 µM (inactive); in the assay with PC-3, 12.9 µM (inactive); in the assay with UO-31 it was 14.1 µM (inactive); in the assay with HCT-15 it was 17.8 µM; with TK-10 it was 14.7 µM (inactive); in the assay with UACC-257, 11.8 µM (inactive). Moreover, the GI50 in the assay on MDA-N was 21.9 µM (inactive); with HOP-62, 21.4 µM (inactive); with Hs-578T, 10.3 µM (inactive); with SF-295, 14.7 µM (inactive); with MDA-MB-231, 20.5 µM (inactive); with HCT-116, 18.5 µM (inactive). Also, the GI50 in the assay with OVCAR-3 is 17.7 µM (inactive).
With `N=C(N)NC(=N)Nc1c(F)c(F)c(F)c(F)c1F`, the GI50 is > 100 µM (inactive) in the assay on NCI/ADR-RES; > 100 µM (inactive) with SK-MEL-2; 93.8 µM (inactive) in the assay on NCI-H522; > 100 µM (inactive) in the assay with SK-MEL-28; 49.4 µM (inactive) with MCF7; 52.7 µM (inactive) in the assay on RPMI-8226. For the same compound, the GI50 was 90.4 µM (inactive) with NCI-H460; 97.9 µM (inactive) with PC-3; > 100 µM (inactive) with UO-31; > 100 µM in the assay with HCT-15; 95.9 µM (inactive) in the assay with TK-10; 23.6 µM (inactive) with UACC-257. For the same compound, the GI50 in the assay with MDA-N was 69.7 µM (inactive); in the assay with HOP-62, > 100 µM (inactive); with Hs-578T, 95.3 µM (inactive); with SF-295, > 100 µM (inactive); with MDA-MB-231, 62.2 µM (inactive); in the assay on HCT-116 it was 70.5 µM (inactive). The GI50 with OVCAR-3 is > 100 µM (inactive).
For `CC(C)(Cl)C(Br)CC/C(=C/CCl)CBr.CC(C)(Cl)C(Br)CC/C(=C\CCl)CBr` (stereo unspecified), the GI50 in the assay on NCI/ADR-RES is 3.23 µM (inactive); with SK-MEL-2 it was 3.21 µM (inactive); in the assay with NCI-H522, 0.998 µM (active); with SK-MEL-28 it was 2.06 µM (inactive); with MCF7, 0.733 µM (active); in the assay on RPMI-8226 it was 1.17 µM (inactive). For the same compound, the GI50 in the assay with NCI-H460 is 2.02 µM (inactive); with PC-3, 2.61 µM (inactive); with UO-31, 1.6 µM (inactive); in the assay on HCT-15 it was 1.43 µM; in the assay with TK-10 it was 2.26 µM (inactive); in the assay with UACC-257 it was 2.5 µM (inactive). The GI50 with MDA-N is 1.64 µM (inactive); in the assay on HOP-62 it was 4.1 µM (inactive); in the assay with Hs-578T it was 3.67 µM (inactive); in the assay on SF-295, 3.51 µM (inactive); with MDA-MB-231, 1.74 µM (inactive); with HCT-116, 1.77 µM (inactive). The GI50 with OVCAR-3 was 1.87 µM (inactive).
With `O=C1C(CN2CCCCC2)CCCC1CN1CCCCC1` (stereo unspecified), the GI50 in the assay with NCI/ADR-RES is 18.5 µM (inactive); in the assay with SK-MEL-28, 17.4 µM (inactive); in the assay with MCF7, 2.53 µM (inactive); in the assay on RPMI-8226 it was 2.24 µM (inactive); in the assay on LOX IMVI, 16.9 µM (inactive); with PC-3, 16.1 µM (inactive). Moreover, the GI50 in the assay with UO-31 is > 56.2 µM (inactive); in the assay with HCT-15, 18.3 µM; in the assay with UACC-257, 17.2 µM (inactive); with MDA-N, 16 µM (inactive); in the assay on Hs-578T, 23.3 µM (inactive); in the assay with MDA-MB-231 it was 18.5 µM (inactive). The GI50 with HCT-116 is 15.4 µM (inactive); with OVCAR-3, 18.6 µM (inactive).
Turning to `Cc1ccc(S(=O)(=O)n2cnc(CC(NC(=O)C3CCC(=O)N3C(=O)OCc3ccccc3)C(=O)N3CCCC3C(=O)NN)c2)cc1` (stereo unspecified), the GI50 in the assay on SK-MEL-2, with SK-MEL-28, in the assay on MCF7, in the assay with RPMI-8226, in the assay with NCI-H460 and in the assay with PC-3 was > 100 µM (inactive) throughout. Also, the GI50 with UO-31 is 1.02 µM (active); in the assay on HCT-15, > 100 µM; with TK-10 it was > 100 µM (inactive); in the assay on UACC-257, > 100 µM (inactive); in the assay with MDA-N, > 100 µM (inactive); in the assay on HOP-62, > 100 µM (inactive). The GI50 in the assay on Hs-578T, with MDA-MB-231 and in the assay with HCT-116 was > 100 µM (inactive) throughout.
As to `COc1ccc2[nH]c3c(c2c1)CC(=O)N1CCC[C@H](C1)CC31OCCCO1`, the GI50 in the assay on NCI/ADR-RES, in the assay with SK-MEL-2, in the assay on SK-MEL-28, with MCF7, with RPMI-8226 and with NCI-H460 was > 100 µM (inactive) throughout. The GI50 with PC-3 is > 100 µM (inactive); in the assay with UO-31, > 100 µM (inactive); in the assay with HCT-15, > 100 µM; with TK-10, > 100 µM (inactive); with UACC-257, > 100 µM (inactive); in the assay on MDA-N it was > 100 µM (inactive). The GI50 with HOP-62 is > 100 µM (inactive); in the assay with Hs-578T, 86.7 µM (inactive); with SF-295 it was > 100 µM (inactive); in the assay with MDA-MB-231, > 100 µM (inactive); with HCT-116 it was > 100 µM (inactive); in the assay on OVCAR-3 it was > 100 µM (inactive).
Turning to `NCC1Nc2ccccc2[C@@H](O)C1O` (stereo partly specified), the GI50 in the assay on NCI/ADR-RES, in the assay with SK-MEL-2, in the assay with SK-MEL-28, in the assay on MCF7, in the assay on RPMI-8226 and in the assay on LOX IMVI was > 100 µM (inactive) each time. For the same compound, the GI50 in the assay with NCI-H460 was > 100 µM (inactive); with PC-3 it was > 100 µM (inactive); in the assay with UO-31 it was > 100 µM (inactive); with HCT-15, > 100 µM; in the assay with TK-10 it was > 100 µM (inactive); in the assay with UACC-257 it was > 100 µM (inactive). Moreover, the GI50 in the assay on MDA-N, in the assay on HOP-62, with Hs-578T, in the assay with SF-295, in the assay on MDA-MB-231 and in the assay with HCT-116 was > 100 µM (inactive) throughout. In the assay with OVCAR-3, the GI50 is > 100 µM (inactive).
